Source: paper PMC4836865 (Chemical Science, 2015)

What was measured:
Type in all cases: biochemical
[1] = target: T1, MelBEc (Escherichia coli, UniProt P02921); experiment: Trp to dansyl FRET, reversed by melibiose; conditions: solubilised in NDT-C11; fluorescent ligand displaced by melibiose
[2] = target: T1, MelBEc; experiment: melibiose reversal of Trp to D2G FRET; conditions: solubilised in NDT-C11; displaces D2G
[3] = target: MelBSt (melibiose permease of Salmonella typhimurium) (Salmonella enterica, UniProt P30878); experiment: melibiose reversal of Trp to D2G FRET; conditions: solubilised in DDM or NDT-C11; displaces D2G
Chain of MelBSt (melibiose permease of Salmonella typhimurium) (P30878 whole entry): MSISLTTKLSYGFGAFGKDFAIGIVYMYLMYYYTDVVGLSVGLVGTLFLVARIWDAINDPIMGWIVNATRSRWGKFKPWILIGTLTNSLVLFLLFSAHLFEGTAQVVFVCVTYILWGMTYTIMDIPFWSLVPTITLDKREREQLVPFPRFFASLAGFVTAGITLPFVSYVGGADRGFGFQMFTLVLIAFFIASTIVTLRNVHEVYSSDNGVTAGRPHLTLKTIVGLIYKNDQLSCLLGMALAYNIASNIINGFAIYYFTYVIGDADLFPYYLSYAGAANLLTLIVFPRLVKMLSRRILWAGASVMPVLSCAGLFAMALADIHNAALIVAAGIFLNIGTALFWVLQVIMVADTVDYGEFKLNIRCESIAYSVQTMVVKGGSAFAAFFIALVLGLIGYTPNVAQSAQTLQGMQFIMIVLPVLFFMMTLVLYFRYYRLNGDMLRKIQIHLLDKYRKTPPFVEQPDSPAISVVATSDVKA

T1 sequence (P02921 2-473): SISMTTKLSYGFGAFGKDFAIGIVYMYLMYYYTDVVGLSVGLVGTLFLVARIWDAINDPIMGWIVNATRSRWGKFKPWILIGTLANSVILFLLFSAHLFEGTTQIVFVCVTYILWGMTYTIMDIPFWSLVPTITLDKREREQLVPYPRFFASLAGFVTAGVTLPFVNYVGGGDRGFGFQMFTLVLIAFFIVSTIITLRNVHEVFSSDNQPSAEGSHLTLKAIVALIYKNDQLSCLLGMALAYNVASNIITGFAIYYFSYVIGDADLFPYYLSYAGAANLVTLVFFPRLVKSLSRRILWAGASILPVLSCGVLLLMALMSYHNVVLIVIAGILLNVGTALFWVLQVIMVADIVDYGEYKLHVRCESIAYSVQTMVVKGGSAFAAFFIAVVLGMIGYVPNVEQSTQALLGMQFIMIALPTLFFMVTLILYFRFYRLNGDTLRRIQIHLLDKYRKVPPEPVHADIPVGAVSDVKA

SMILES | Trp to dansyl FRET, reversed by melibiose [1] | melibiose reversal of Trp to D2G FRET [2] | melibiose reversal of Trp to D2G FRET [3]
CN(C)c1cccc2c(S(=O)(=O)NCCS[C@@H]3O[C@H](CO)[C@H](O)[C@H](O)[C@H]3O)cccc12 [2′-(N-dansyl)aminoalkyl-1-thio-β-D-galactopyranoside] | FRET response of the D^2G bound MelB to melibiose or water addition | – | –
OC[C@H]1O[C@H](OC[C@H]2OC(O)[C@H](O)[C@@H](O)[C@@H]2O)[C@H](O)[C@@H](O)[C@H]1O (stereo partly drawn) [melibiose] | – | NDT-C11 is capable of maintaining the melibiose binding activity of both MelBSt and MelBEc | MelBSt solubilized in DDM or NDT-C11 was subjected to melibiose reversal of Trp
